# In patent US20040091985A1, “NAD phosphite oxidoreductase, a novel catalyst from bacteria for regeneration of NAD(P)H” (priority 2002, published 2004):
# Several values for one entry are separate records, joined by “and”; a condition that tells them apart may be missing. Equal values may be shown once. Entries after “also recorded” stand apart in the source; their conditions may differ.
# Assays:
# [1] = target: T1, PtxD (Stutzerimonas stutzeri, UniProt O69054); assay type: biochemical, Pseudomonas stutzeri WM88; set-up: made in house
# T1 sequence (O69054 1-336): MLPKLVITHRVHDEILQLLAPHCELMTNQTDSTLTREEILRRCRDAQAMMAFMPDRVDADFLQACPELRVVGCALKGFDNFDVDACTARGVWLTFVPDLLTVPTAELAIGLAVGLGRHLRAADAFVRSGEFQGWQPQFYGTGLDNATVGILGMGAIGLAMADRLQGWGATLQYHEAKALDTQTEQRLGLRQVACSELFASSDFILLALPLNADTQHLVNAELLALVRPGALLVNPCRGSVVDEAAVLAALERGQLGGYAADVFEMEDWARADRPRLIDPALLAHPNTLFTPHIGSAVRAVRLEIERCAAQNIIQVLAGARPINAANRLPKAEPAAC
# [2] = target: T1, PtxD; assay type: biochemical, Pseudomonas stutzeri WM88; set-up: made in house; remark: listed apart in the source
# [3] = target: T1, PtxD; assay type: biochemical, Pseudomonas stutzeri WM88; set-up: made in house; remark: listed apart in the source
# [4] = target: T1, PtxD; assay type: biochemical, Pseudomonas stutzeri WM88; set-up: made in house; remark: listed apart in the source
# [5] = target: PtxD/LLDH (Stutzerimonas stutzeri, UniProt O69054); assay type: biochemical
# [6] = system: PtxD/HLADH; assay type: biochemical
# [7] = target: FDH; details: read-out: Ki, inhibition of FDH; cited from earlier work
# [8] = target: T1, PtxD; experiment: Initial rate studies of PtxD in the presence of products (NADH, phosphate) and dead end inhibitor sulfite; assay type: biochemical, Pseudomonas stutzeri WM88; set-up: made in house
# [9] = target: PtxD (Stutzerimonas stutzeri, UniProt O69054); assay type: biochemical
# [10] = target: T1, PtxD; experiment: Initial rate studies of PtxD with NAD and phosphite, kinetic model fitting
compound,measurement,setting,value
CC(C)CC(O)C(=O)O (racemic) [DL-Hydroxyisocaproate],"inhibitory activity on PtxD, in words",[1],moderately inhibited
"Nc1ncnc2c1ncn2[C@@H]1O[C@H](COP(=O)(O)OP(=O)(O)OC[C@H]2OC(O)[C@H](O)[C@@H]2O)[C@@H](O)[C@H]1O (stereo partly shown) [ADPR, ADP-ribose]","inhibitory activity on PtxD, in words",[1],weak enzyme inhibitors
Nc1ncnc2c1ncn2[C@@H]1O[C@H](COP(=O)(O)OP(=O)(O)O)[C@@H](O)[C@H]1O [ADP],"inhibitory activity on PtxD, in words",[1],weak enzyme inhibitors
Nc1ncnc2c1ncn2[C@@H]1O[C@H](COP(=O)(O)O)[C@@H](O)[C@H]1O [AMP],"inhibitory activity on PtxD, in words",[1],does not inhibit
Nc1ncnc2c1ncn2[C@@H]1O[C@H](COP(=O)(O)OP(=O)(O)OP(=O)(O)O)[C@@H](O)[C@H]1O [ATP],"inhibitory activity on PtxD, in words",[1],weak enzyme inhibitors
NCCP(=O)(O)O [Aminoethylphosphonate],reduction of potential substrate by PtxD with NADH (reverse direction),[2],unable to catalyze the reduction
O=C(O)[C@H](O)CO [D-Glycerate],"inhibitory activity on PtxD, in words",[1],moderately inhibited
O=C(O)CN(CCN(CC(=O)O)CC(=O)O)CC(=O)O [EDTA],effect on enzyme activity,[3],no effect
O=C(O)CN(CCOCCOCCN(CC(=O)O)CC(=O)O)CC(=O)O [EGTA],effect on enzyme activity,[3],no effect
NC(=O)c1ccc[n+]([C@@H]2O[C@H](COP(=O)([O-])OP(=O)(O)OC[C@H]3O[C@@H](n4cnc5c(N)ncnc54)[C@H](OP(=O)(O)O)[C@@H]3O)[C@@H](O)[C@H]2O)c1 [NADP],"inhibitory activity on PtxD, in words",[1],weak enzyme inhibitors
same,"Activity, cofactors",[4],3.4% and 7.1% and 0.4% and 1.1%
same,ability to substitute for NAD,[4],able to substitute for NAD; also recorded: can substitute for NAD
NC(=O)c1ccc[n+]([C@@H]2O[C@H](COP(=O)([O-])OP(=O)(O)OC[C@H]3O[C@@H](n4cnc5c(N)ncnc54)[C@H](O)[C@@H]3O)[C@@H](O)[C@H]2O)c1 [NAD],TN (NAD^+),[5],12
same,TTN (NAD^+),[5],2000
same,TN (NAD^+),[6],123
same,TTN (NAD^+),[6],2000
same,Ki,[7],150 µM
same,"Activity, cofactors",[4],100.00%
same,Ki,"[8]; Ki, inhibition of PtxD",223 µM
same,total turnover numbers of NAD^+,[9],up to 2000
[Cl-].[Na+] [NaCl],activity left,[3],37%
O=NO [Nitrite],"inhibitory activity on PtxD, in words",[1],moderately inhibited
O=S(O)O [Sulfite],"inhibitory activity on PtxD, in words",[1],strong inhibitor
same,Ki,[8]; Kii,4.97 µM and 1.15 µM
same,Ki,[8]; Kis with respect to NAD,10.8 ± 0.1 µM
same,Ki,[8]; Kis with respect to phosphite,16.1 ± 0.1 µM
O=C(O)O [bicarbonate],reduction of potential substrate by PtxD with NADH (reverse direction),[2],unable to catalyze the reduction
O=C(O)C(O)CO (stereo not shown) [glycerate],reduction of potential substrate by PtxD with NADH (reverse direction),[2],unable to catalyze the reduction
O=C(O)C(=O)CO [hydroxypyruvate],reduction of substrate by PtxD with NADH,[2],0.14 units/mg
Arsenite,"inhibitory activity on PtxD, in words",[1],moderately inhibited
NADH,type of inhibition of PtxD,[8],competitive inhibitor
Phosphite,"Activity, substrates",[4],100.00%
same,Km,[10],53.1 µM and ~50 µM
arsenate,reduction of potential substrate by PtxD with NADH (reverse direction),[2],unable to catalyze the reduction
